Measurements taken from patent US7169769B2, “17α-hydroxy-14β-steroids with hormonal effect” (Akzo Nobel N.V., priority 2001, dated 2007).

How the values were obtained:
[1] = biological target: T1, human androgen receptor (hAR) (Homo sapiens, UniProt P10275); experiment: Transactivative androgen activity in CHO cells transfected with hAR and MMTV-luciferase reporter, compared with 5α-dihydrotestosterone; type: cell-based; design: concentration or dose not given beside the values; details: incubation 16 h, 37° C., compared with the activity of 5α-dihydrotestosterone
T1 construct: expressed in transfected cells; host or cells: Chinese hamster ovary cells (CHO)
T1 sequence (P10275 1-920): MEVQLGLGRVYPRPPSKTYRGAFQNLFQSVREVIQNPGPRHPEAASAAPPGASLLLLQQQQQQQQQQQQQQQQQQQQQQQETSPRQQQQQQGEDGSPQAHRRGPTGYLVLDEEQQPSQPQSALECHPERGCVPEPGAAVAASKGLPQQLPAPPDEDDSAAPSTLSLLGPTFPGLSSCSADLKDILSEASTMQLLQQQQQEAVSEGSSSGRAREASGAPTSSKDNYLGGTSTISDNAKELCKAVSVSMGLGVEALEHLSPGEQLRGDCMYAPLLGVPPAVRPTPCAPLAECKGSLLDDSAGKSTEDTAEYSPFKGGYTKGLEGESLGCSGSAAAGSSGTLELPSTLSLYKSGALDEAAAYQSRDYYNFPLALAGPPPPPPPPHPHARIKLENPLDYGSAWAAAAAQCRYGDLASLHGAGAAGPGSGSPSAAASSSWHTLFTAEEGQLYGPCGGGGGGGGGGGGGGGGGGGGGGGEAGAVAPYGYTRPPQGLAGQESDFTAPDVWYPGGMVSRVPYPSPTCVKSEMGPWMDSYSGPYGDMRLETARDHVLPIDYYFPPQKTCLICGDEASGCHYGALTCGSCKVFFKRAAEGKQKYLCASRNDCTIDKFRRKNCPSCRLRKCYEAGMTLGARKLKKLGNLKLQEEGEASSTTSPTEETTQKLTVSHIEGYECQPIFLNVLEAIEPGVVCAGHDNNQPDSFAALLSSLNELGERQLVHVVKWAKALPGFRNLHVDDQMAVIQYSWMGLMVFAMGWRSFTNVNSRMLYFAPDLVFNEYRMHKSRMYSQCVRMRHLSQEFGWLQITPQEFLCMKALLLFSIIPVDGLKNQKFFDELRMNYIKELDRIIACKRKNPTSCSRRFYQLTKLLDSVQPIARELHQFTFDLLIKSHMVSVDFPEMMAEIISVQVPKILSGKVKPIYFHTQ
Description: The transactivative androgen activity of the compounds of the invention was measured in Chinese hamster ovary cells (CHO) transfected with the human androgen receptor (hAR), in combination with a mouse mammary tumor virus (MMTV), and luciferase […] gene (incubation time 16 h, temperature 37° C.) and compared with the activity of 5α-dihydrotestosterone [Schoonen, W. G. E. J.; de Ries, R. J. H.; Joosten, J. W. H.; Mathijssen-Mommers, G. J. W.; Kloosterboer, H. J., Analyt. Biochem. 261, 222–224 (1998)].

[2] = test system: human hepatocytes; experiment: Determination of t1/2 (metabolic stability) after incubation with human hepatocytes; type: in vitro ADME; details: 100 nM compound, 0.5, 1 and 2 h, class relative to 17α-methyltestosterone and testosterone; for t1/2 Bioassay: supernatant analysed by androgenic activity bioassay (example 6)
Description: The half-life of a compound as a result of contact with human hepatocytes holds as a reliable indication of metabolic stability. As it is well known that the absorption of this class of steroids is high, this assay provides an in vitro model for oral activity in humans.
Hepatocytes collected from healthy young (25–45 year) male organ donors were cryo preserved in liquid nitrogen and kept there until use. They were thawed at 37° C. in a waterbath, placed immediately on ice, washed twice in one volume of cold (4° C.) incubation medium [William's medium E (without phenol red) with Glutamax I®, gentamicin 50 μg/ml, insulin 1 μM, fetal calf serum 0% (v/v)], counted and the viability checked by Trypan blue exclusion. Cells were incubated as suspensions in 96-wells (non-coated) plates at a nominal density of 3×10^4 cells/well in 300 μl medium at 37° C. with an air/CO2 mixture (95/5).
The hepatocytes were incubated with 100 nM final concentration of the compound to be tested. The incubations were stopped after 0.5, 1 and 2 h by centrifugation at 200 g. The supernatant was collected for liquid chromatography coupled to immediate mass spectroscopic analysis (LC-MS/MS analysis) and for bioassay. For the latter 10 μl was used for determination of the androgenic activity. The androgenicity was determined as described at example 6. The final compound concentration for determination of androgenic activity was 1 nmol/l.
The metabolic stability (t1/2) of the compounds of the invention were classified according to the following scheme: • (+++) metabolic stability>17α-methyltestosterone (MT) • (++) 17α-methyltestosterone>metabolic stability>80% of 17α-methyltestosterone • (+) 80% of 17α-methyltestosterone>metabolic stability>testosterone • (−) metabolic stability<testosterone Results are collected in Table 1.

[3] = reported in Heusser et al Helv Chim Acta Vol 22, 1949; cited from earlier work

SMILES	Androgen activity (%) [1] [%]	t1/2 Bioassay [2]	t1/2 LC-MS/MS ([2]; supernatant analysed by LC-MS/MS)	androgenic activity [3]
C[C@@H]1CC2=CC(=O)CC[C@@H]2[C@H]2CC[C@]3(C)[C@H](O)CC[C@@H]3[C@@H]21 [Ref. comp. 2, (7α,14β,17α)-17-Hydroxy-7-methylestr-4-en-3-one, reference compound]	60.5			
CC[C@@]1(C)C[C@@H]2[C@H]3[C@H](CC[C@]2(C)[C@@H]1O)[C@H]1CCC(=O)C=C1C[C@H]3C [Example 4b, (7α,14β,16β,17α)-16-Ethyl-17-hydroxy-7,16-dimethylestr-4-en-3-one]	24.0			
C[C@@H]1CC2=CC(=O)CC[C@@H]2[C@H]2CC[C@@]3(C)[C@H](CC(C)(C)[C@H]3O)[C@@H]21 [Example 3, (7α,14β,17α)-17-hydroxy-7,16,16-trimethylestr-4-en-3-one]	78.5			
CC[C@H]1C[C@@H]2[C@H]3[C@H](CC[C@]2(C)[C@@H]1O)[C@H]1CCC(=O)C=C1C[C@H]3C [Example 4a, (7α,14β,16β,17α)-16-Ethyl-17-hydroxy-7-methylestr-4-en-3-one]	20.0			
C[C@@H]1CC2=CC(=O)CC[C@@H]2[C@H]2CC[C@]3(C)[C@H](O)[C@H](C)C[C@@H]3[C@@H]21 [Example 2, (7α,14β,16α,17α)-17-Hydroxy-7,16-dimethylestr-4-en-3-one]	38.7	(+ +)		
C[C@@H]1CC2=CC(=O)CC[C@@H]2[C@H]2CC[C@]3(C)[C@H](O)[C@@H](C)C[C@@H]3[C@@H]21 [Example 1, (7α,14β,16β,17α)-17-Hydroxy-7,16-dimethylestr-4-en-3-one]	99.0	(+ +)	(+ +)	
C[C@]12CC[C@H]3[C@@H](CCC4=CC(=O)CC[C@@]43C)[C@H]1CC[C@H]2O [17α-hydroxy-14β-testosterone]				no androgenic activity
